Data as given in patent US20120022116A1, “COMPOSITIONS AND METHODS FOR THE TREATMENT OF PATHOLOGICAL CONDITION(S) RELATED TO GPR35 AND/OR GPR35-HERG COMPLEX” (priority 2010, published 2012).
“Also recorded” adds a separate entry of the source. Read-outs that look alike come from different tables or passages of the source.

Tests used:
[1] = target: T1, GPR35 (Homo sapiens, UniProt Q9HC97); test: Ca2+ mobilization assay (Fluo-4) in HEK-GPR35-Gqo5 cells; format: cell-based; conditions: for Ca2+ moblization (HEK-GPR35-Gqo5): HEK293 cells co-expressing GPR35 and Gqo5, Fluo-4, compounds 10 μM; for Ca2+ mobilization signal in cells co-expressing GPR35 and Gqo5: engineered HEK293, 10 μM
T1 construct: myc; expressed in transfected cells; host or cells: HEK293, transient co-transfection (Lipofectamine LTX)
T1 sequence (Q9HC97 whole entry): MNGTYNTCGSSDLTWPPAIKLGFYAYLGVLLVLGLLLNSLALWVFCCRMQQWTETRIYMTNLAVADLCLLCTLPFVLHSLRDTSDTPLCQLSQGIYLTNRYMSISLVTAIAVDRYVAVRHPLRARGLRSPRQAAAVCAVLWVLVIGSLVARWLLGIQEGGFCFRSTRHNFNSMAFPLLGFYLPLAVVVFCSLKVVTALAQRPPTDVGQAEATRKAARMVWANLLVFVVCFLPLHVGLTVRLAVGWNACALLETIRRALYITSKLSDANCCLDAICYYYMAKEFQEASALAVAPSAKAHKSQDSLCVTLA

[2] = target: T2, hERG channel (Homo sapiens, UniProt Q12809); test: Automated patch clamp recording of hERG tail current (IonWorks); conditions: hERG tail current ratio post/pre-compound, 50 uM
T2 sequence (Q12809 whole entry): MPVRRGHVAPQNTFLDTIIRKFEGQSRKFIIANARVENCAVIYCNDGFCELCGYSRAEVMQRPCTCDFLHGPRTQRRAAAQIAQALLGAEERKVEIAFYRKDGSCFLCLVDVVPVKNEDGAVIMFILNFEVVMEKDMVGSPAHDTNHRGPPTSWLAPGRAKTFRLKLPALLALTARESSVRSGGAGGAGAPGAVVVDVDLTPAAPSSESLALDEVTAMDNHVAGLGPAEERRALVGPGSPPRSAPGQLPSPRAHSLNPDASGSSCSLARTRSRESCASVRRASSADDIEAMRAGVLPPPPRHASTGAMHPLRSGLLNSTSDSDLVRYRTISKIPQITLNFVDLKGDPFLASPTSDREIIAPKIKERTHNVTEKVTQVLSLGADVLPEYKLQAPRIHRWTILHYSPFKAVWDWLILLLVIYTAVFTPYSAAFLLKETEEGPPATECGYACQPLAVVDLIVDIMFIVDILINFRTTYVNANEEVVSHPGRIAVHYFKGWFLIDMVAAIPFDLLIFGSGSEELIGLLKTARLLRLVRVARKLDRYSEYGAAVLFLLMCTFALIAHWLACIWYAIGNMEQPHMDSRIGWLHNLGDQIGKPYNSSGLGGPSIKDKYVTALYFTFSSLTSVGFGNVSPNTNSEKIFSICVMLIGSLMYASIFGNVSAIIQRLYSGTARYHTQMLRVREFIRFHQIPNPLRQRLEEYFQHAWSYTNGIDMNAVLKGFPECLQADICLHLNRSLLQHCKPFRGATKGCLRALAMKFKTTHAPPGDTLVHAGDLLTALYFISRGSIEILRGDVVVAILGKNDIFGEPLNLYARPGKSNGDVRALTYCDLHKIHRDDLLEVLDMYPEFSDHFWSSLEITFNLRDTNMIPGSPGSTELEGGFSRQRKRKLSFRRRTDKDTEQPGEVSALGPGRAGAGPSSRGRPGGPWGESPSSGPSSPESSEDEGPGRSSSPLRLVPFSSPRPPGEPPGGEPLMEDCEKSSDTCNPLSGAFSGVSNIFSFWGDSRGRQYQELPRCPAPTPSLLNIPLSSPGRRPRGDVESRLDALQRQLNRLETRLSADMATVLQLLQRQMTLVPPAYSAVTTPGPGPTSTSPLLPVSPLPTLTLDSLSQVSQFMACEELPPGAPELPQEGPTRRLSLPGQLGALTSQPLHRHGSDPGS

[3] = test system: HEK293 cells expressing only Gqo5 or GPR35; test: Ca2+ mobilization assay in HEK293 cells expressing only Gqo5 or only GPR35; format: cell-based, human; conditions: engineered HEK293, 10 μM
Experimental: (§1) Ca^2+ flux assay with transient transfected cells were carried out in 96-well plates (Corning Inc, Cat#3664). HEK293 cells (25000 cells/well) were seeded on day 1. Cells were transfected with either myc-GPR35 or HA-Gqo5 or co-transfected with both plasmids (myc-GPR35/HA-Gqo5 DNA ratio 2:1) using Lipofectamine LTX (Invitrogen) on day 2. Ca^2+ flux assay was performed 24 hours after transfection.
as §1, with “assays” for “assay”, “assays were” for “assay was”

[4] = test system: GPR35; test: DMR desensitization / antagonism mode against GPR35 agonist-induced DMR in HT29 cells; format: cell-based, human; conditions: for Desenstization to GPR35 agonist: HT29 cells pretreated with compound, then GPR35 agonist
[5] = test system: GPR35; test: GPR35 receptor internalization, immunofluorescence confocal imaging in HT29 cells; format: cell-based, human; conditions: anti-GPR35 antibody
Experimental: HT29 cells were plated on a 8-well chamber slide (10,000 cells/well) and incubated at 37° C. for 24 hrs. Next day, cells were fixed with 4% formaldehyde in 1×PBS for 15 min, followed by blocking and permeabilization in a buffer that contains 4% goat serum, 0.1% BSA, 0.1% Triton X100 in 1×PBS for 2 hrs. After 5 min wash with PBS, fixed cells were incubated with primary antibody anti-GPR35 (Abcam) (1:300) in 3% BSA/PBS buffer for 24 hrs, followed by incubation with secondary antibody Alexa Fluor® 488 goat anti-rabbit IgG (H+L) (Invitrogen) (1:250) in 3% BSA/PBS for 1 hr at room temperature. Cells were finally washed once with PBS and sealed with 1.5 mm thick glass cover-slip. Dried slides were stored at 4° C. until imaging. Confocal imaging was performed with Zeiss confocal microscope Axiovert 40. […] Confocal images were analyzed using MacBiophotonics Image J software (http://www.macbiophotonics.ca/downloads.htm).
HT29 cells were plated on a 8-well chamber slide (10,000 cells/well) and incubated at 37° C. for 24 hrs. […] Confocal images were analyzed using MacBiophotonics Image J software (http://www.macbiophotonics.ca/downloads.htm).
HT29 cells were plated on a 8-well chamber slide (10,000 cells/well) and incubated at 37° C. for 24 hrs. […] Confocal images were analyzed using MacBiophotonics Image J software (http://www.macbiophotonics.ca/downloads.htm). […]

[6] = test system: HT29 cells; test: cAMP-Glo assay in HT29 cells; format: cell-based, human; conditions: for increase in intracellular cAMP concentration: HT29 cells, Gs readout; for suppression in intracellular cAMP concentration: forskolin co-stimulated HT29 cells, Gi readout
Experimental: (§2) Cells were plated in 384well plates (BD Bioscience, Cat#354660) (10000 cells/well for HEK293, 20000 cells/well for HT29). Cells were cultured in complete growth medium overnight. The next day cAMP-Glo assay was performed according to manufacturer's instruction (Promega, Cat#V1502). Cells were incubated with 20 μM compounds in induction buffer with or without 0.5 μM or 5 μM forskolin for 30 minutes before adding lysis buffer. Luminescence was measured using Tecan SafireII reader.
as §2, with “384 well” for “384well”, “Cat# 354660)” for “Cat#354660)”, “Cat#V 1502).” for “Cat#V1502).”
as §2, with “in 384 well” for “in 384well”, “Bioscience, Cat# 354660)” for “Bioscience, Cat#354660)”, “HT29). The cells” for “HT29). Cells”, “day a” for “day”, “Cat#V1502). The cells” for “Cat#V1502). Cells”

[7] = test system: HT29 cells; test: Fluo-4 Ca2+ mobilization assay in native HT29 cells; format: cell-based, human; conditions: Fluo-4 assay, 10 micromolar
Experimental: (§3) Fluo-4 Direct™ Calcium Assay Kit was purchased from Invitrogen (Starter pack, Cat. no. F10471). HEK293 cells (15000 cells/well) and HT29 cells (30000 cells/well) were seeded in polyD-lysine coated 384well plates (Corning Inc., Cat#3845), culture overnight at 37° C. The next day, Ca^2+ flux assay was performed following manufacturer's instruction and fluorescence ratio (340 nm/380 nm) was measured on FDSS (Functional Drug Screening System, Hamamatsu Photonics, Japan). Compounds were prepared as 10× stock (final concentration 10 μM) in the Ca^2+ assay buffer.
as §3, with “384 well” for “384well”, “Cat#3845) and cultured” for “Cat#3845), culture”, “day, the” for “day,”

[8] = test system: hERG channel
[9] = target: T2, hERG channel
[10] = target: T2, hERG channel; set-up: expressed in transfected cells; conditions: 10 μM; cited from earlier work
[11] = test system: hERG channel; test: Cross-desensitization DMR assay against hERG activator mallotoxin-induced DMR in HT29 cells
[12] = test system: HEK-293 cells; test: DMR assay in parental HEK-293 cells; format: cell-based, human; conditions: zaprinast 10 μM
[13] = test system: HEK-hERG cells
[14] = test system: HEK-hERG cells; test: DMR assay in HEK-hERG cells; conditions: zaprinast 10 μM
[15] = listed as 6-bromo-3-methylthieno[3,2-b]thiophene-2-carboxylic acid

SMILES | Ca2+ moblization (HEK-GPR35-Gqo5) [1] | Ca2+ mobilization signal in cells co-expressing GPR35 and Gqo5 [1] | Electrophysiology (HEK-hERG) [2] | Ca2+ mobilization signal in cells expressing only Gqo5 or GPR35 [3] | Desenstization to GPR35 agonist [4] | desensitization / attenuation of the GPR35 agonist (zaprinast, NPPB) DMR signal in HT29 cells ([4]; pretreatment, zaprinast 400 nM) | increase in intracellular cAMP concentration [6] | suppression in intracellular cAMP concentration [6] | Desenstization to hERG activator [8] | DMR signal in HEK-293 cells [12] | further results
Cc1c(C(=O)O)sc2c(Br)csc12 [Compound 13, 3-methyl-6-bromo-thieno[3,2-b]thiophene-2-carboxylic acid] | inactive | triggered quite obvious Ca^2+ signal | activator | failed to cause any obvious Ca^2+ mobilization signal | desenstized | caused desensitization | neither zaprinast nor 6-bromo-3-methylthieno[3,2-b]thiophene-2-carboxylic acid was able to cause increase in intracellular cAMP concentration | neither zaprinast nor 6-bromo-3-methylthieno[3,2-b]thiophene-2-carboxylic acid cause any suppression in intracellular cAMP concentration |  |  | GPR35 receptor internalization [5, 15]: underwent internalization; also recorded: caused receptor internalization; Ca2+ mobilization signal in HT29 cells [7, 15]: unable to cause any detectable Ca^2+ signal
O=[N+]([O-])c1cc2nc(O)c(O)nc2cc1[N+](=O)[O-] [DNQX] | active | active |  |  | desenstized |  |  |  | partially desenstized |  | Electrophysiology (HEK-hERG) [9]: inactive
CC(=O)c1c(O)c(C)c(O)c(Cc2c(O)c3c(c(C(=O)/C=C/c4ccccc4)c2O)OC(C)(C)C=C3)c1O [Mallotoxin, mallotoxin] |  |  | activator |  | desenstized |  |  |  |  | no detectable DMR signal (i.e., net-zero DMR) | shift of the half maximal activation voltage (V1/2) to the hyperpolarizing direction [10]: more than 25 mV; desensitization / attenuation of the GPR35 agonist (zaprinast, NPPB) DMR signal in HT29 cells [4]: dose-dependently, partially inhibited; also recorded: partially attenuate; also recorded: dose-dependently desensitized; Desenstization to hERG activator ([11]; HT29 cells pretreated with compound, then hERG activator mallotoxin): desenstized
Cc1cccc(Nc2ccccc2C(=O)O)c1C [Mefenamic Acid] | inactive |  |  |  | desenstized |  |  |  | partially desenstized |  | 
CCCOc1ccccc1-c1nc2nn[nH]c2c(=O)[nH]1 [zaprinast] | active | triggered quite obvious Ca^2+ signal; also recorded: triggered a detectable Ca^2+ mobilization signal; also recorded: active | inactive | failed to cause any obvious Ca^2+ mobilization signal; also recorded: not in either parental cell, or the engineered cells expressing either GPR35 or Gqo5 | desenstized | dose-dependently caused desensitization | neither zaprinast nor 6-bromo-3-methylthieno[3,2-b]thiophene-2-carboxylic acid was able to cause increase in intracellular cAMP concentration | neither zaprinast nor 6-bromo-3-methylthieno[3,2-b]thiophene-2-carboxylic acid cause any suppression in intracellular cAMP concentration |  | net-zero DMR signal | impact on the mallotoxin DMR signal in HEK-hERG cells [13]: little or no impact; GPR35 receptor internalization [5]: underwent internalization; also recorded: caused receptor internalization; also recorded: significant receptor internalization; DMR signal in HEK-hERG cells [14]: net-zero DMR signal; attenuation of the mallotoxin DMR signal in HT29 cells ([11]; pretreatment, mallotoxin 16 micromolar): dose-dependently, partially attenuated; also recorded: partially attenuate; also recorded: dose-dependently desensitized; Ca2+ mobilization signal in HT29 cells [7]: failed to cause any significant Ca^2+ mobilization; also recorded: unable to cause any detectable Ca^2+ signal; also recorded: did not result in any detectable Ca^2+ mobilization signal; Ca2+ mobilization signal in HT29 cells ([7]; listed as Zaprinast): did not result in any detectable Ca^2+ mobilization signal
